# Reference: ChEMBL document CHEMBL5729666, “Substituted [1,2,4]triazolo[4,3-a]pyrazines as modulators of sodium channel activity” (2023)
# Biological target: T1, Cytochrome P450 1A2 (Homo sapiens, UniProt P05177)
# T1 sequence (P05177 whole entry): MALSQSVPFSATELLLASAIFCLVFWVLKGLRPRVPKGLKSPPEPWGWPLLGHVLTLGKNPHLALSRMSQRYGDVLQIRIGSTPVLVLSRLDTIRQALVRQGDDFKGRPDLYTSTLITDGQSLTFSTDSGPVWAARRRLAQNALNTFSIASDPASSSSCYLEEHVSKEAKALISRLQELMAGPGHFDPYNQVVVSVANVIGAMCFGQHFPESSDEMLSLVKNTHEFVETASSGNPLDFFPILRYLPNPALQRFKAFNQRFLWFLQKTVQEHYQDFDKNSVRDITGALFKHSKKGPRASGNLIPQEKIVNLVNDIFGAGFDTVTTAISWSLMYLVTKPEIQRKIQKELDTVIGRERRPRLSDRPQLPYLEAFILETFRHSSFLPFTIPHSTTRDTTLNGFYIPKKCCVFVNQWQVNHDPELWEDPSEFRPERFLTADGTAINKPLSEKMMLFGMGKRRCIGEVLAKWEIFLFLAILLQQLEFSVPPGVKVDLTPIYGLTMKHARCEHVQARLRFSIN
# Test: CYP1A2 Inhibition Assay: CYP1A2 Inhibition in Human Liver Microsomes. Pooled human liver microsomes were incubated with individual CYP, CYP1A2, isozyme-specific marker substrate (Phenacetin) in the presence of test compound at various concentrations (0.05, 0.15, 0.5, 1.5, 5, 15, 50 uM). The specific marker metabolites are measured with LC/MS/MS. The remaining enzymatic activities and inhibitory potency IC50 are determined. Procedure: Microsomes are removed out of the −80° C. freezer to thaw on ice and 20 μL of the substrates solution added to the corresponding wells. Then 20 μL PB was added to blank wells and 2 μL of the test compounds and positive control working solution added to the corresponding wells. 2 μL of solvent was added to No Inhibitor wells and Blank wells. Then 158 μL of the HLM working solution was added to all wells of the incubation plate. The plate was pre-warmed for about 10 min using a 37° C. water bath. Then 20 μL of the NADPH cofactor solution was added to all incubation wells, mixed and incubated for 10 minutes at 37° C. water bath. The reaction is terminated by adding 400 μL cold stop solution (200 ng/mL Tolbutamide and 200 ng/mL Labetalol in ACN). The samples were centrifuged at 4000 rpm for 20 minutes to precipitate protein. Finally 200 μL of the supernatant was transferred to 100 μL HPLC water, shaken for 10 min and analyzed by LC/MS/MS.
row,IC50,SMILES
1,in the range around 8 µM,O=C(NNc1cnc(-c2ccc(OC(F)(F)F)cc2)cn1)C1(F)CC1
2,< 1 µM,FC(F)(F)Oc1ccc(-c2ccc3nnc(C(F)(F)Cl)n3n2)cc1
